Data on five molecules can be found in ChEMBL document CHEMBL3425465, “Synthesis, antimalarial and antitubercular activities of meridianin derivatives” (Eur J Med Chem, 2015).

Converted amounts (≈) assume the structure as drawn.

Type in all cases: functional
Test [1] has as its system Mycobacterium tuberculosis. The experiment in a line: Antitubercular activity against multidrug-resistant Mycobacterium tuberculosis assessed as parasite growth inhibition by REMA method.
Test [2] concerns Mycobacterium tuberculosis. In words: Antitubercular activity against Isoniazid-resistant Mycobacterium tuberculosis assessed as parasite growth inhibition by REMA method.
For test [3], the system named is Mycobacterium tuberculosis. In words: Ratio of isoniazid IC50 to compound IC50 for Isoniazid-resistant Mycobacterium tuberculosis by REMA method.
Test [4] has as its system Mycobacterium tuberculosis. In words: Antitubercular activity against Rifampicin-resistant Mycobacterium tuberculosis assessed as parasite growth inhibition by REMA method.

On to `NNC(=O)c1ccncc1` [ISONIAZID], for which the MIC90 (in general, the lowest concentration that inhibits either 90% of growth or 90% of the strains tested, depending on the study) in test [1] came out at 117 µM (≈ 16 µg/mL); in test [2] it was 467 µM (≈ 64.1 µg/mL).
`O=C1NC(c2c[nH]c3ccc(I)cc23)Nc2ccccc21` (stereo not drawn): the MIC90 in test [1] stood at 20.7 µM (≈ 8.06 µg/mL); in test [2], 10.3 µM (≈ 4.01 µg/mL); in test [4] it was 5.2 µM (≈ 2.02 µg/mL). In addition, in test [3], the Ratio is greater than 12.
Consider `CC[C@@H](CO)NCCN[C@@H](CC)CO` [ETHAMBUTOL], for which the MIC90 in test [1] came out at 626 µM (≈ 128 µg/mL).
`CO[C@H]1/C=C/O[C@@]2(C)Oc3c(C)c(O)c4c(O)c(c(/C=N/N5CCN(C)CC5)c(O)c4c3C2=O)NC(=O)/C(C)=C\C=C\[C@H](C)[C@H](O)[C@@H](C)[C@@H](O)[C@@H](C)[C@H](OC(C)=O)[C@@H]1C` [RIFAMPIN]: the MIC90 in test [1] was 38.9 µM (≈ 32 µg/mL); in test [2], 0.07 µM (≈ 0.0576 µg/mL); in test [4] it was 311 µM (≈ 256 µg/mL).
For `O=C1NC(c2c[nH]c3ccc(Br)cc23)Nc2ccccc21` (stereo not drawn), the figures for the MIC90 in test [1], in test [2] and in test [4] were 188 µM (≈ 64.2 µg/mL), 46.9 µM (≈ 16 µg/mL) and 46.9 µM (≈ 16 µg/mL), respectively.
